Literature values as cited in publication PMC5224880, “Discovery and Molecular Basis of a Diverse Set of Polycomb Repressive Complex 2 Inhibitors Recognition by EED” (PLoS ONE, 2017).
Entries after “also recorded” stand apart in the source; their conditions may differ.

Key:
[1] = system: tumor growth in the xenograft mouse model; set-up: method as in PMID 28135235; settings: cited from earlier work
[2] = system: PRC2; set-up: method as in PMID 28135235; settings: recombinant NCP as substrate; read-out: half-maximum stimulation (Kact) of PRC2 activity; cited from earlier work

| Molecule | antitumor activity [1] | EC50 [2] [nM] |
| --- | --- | --- |
| CS(=O)(=O)c1ccc(-c2cnc(NCc3ccco3)n3cnnc23)cc1 [EED226] | strong antitumor activity; also recorded: completely regressed tumor growth |  |
| H3K27me3 stimulatory peptide: activation peptide H3K27me3 (21–44) used to stimulate PRC2 activity for the nucleosome substrate |  | 1000 |
